Test results published in patent publication US20050191294A1, “Compositions and methods of use of targeting peptides for diagnosis and therapy” (Board of Regents, The University of Texas System, priority 2003, published 2005).
Where a SMILES comes first, the peptide text is derived from it. Bridges are numbered along the chain shown (N, C = ends). Primed or numbered codes have the meaning given here. Where no end group is shown, it is not given here. [ ]: non-standard residue; d: D form. FITC′ = not defined here

Assays:
DU145 cells = assay: Cell apoptosis assay (Annexin-V staining), DU145; assay type: cell-based, human; details: DU145, 30 μM, 6 hours
From the text: Cell apoptosis assays. Peptides were synthesized to our specifications at greater than 95% purity (Genemed Synthesis Inc., San Francisco, Calif.). Apoptosis was induced with a pro-apoptotic motif D(KLAKLAK)2 that disrupts mitochondrial membranes and is inert to eukaryotic plasma membranes. An equimolar concentration of the targeted [(WIFPWIQL (SEQ ID NO:6)-GG-D(KLAKLAK)2 (SEQ ID NO:11) and WDLAWMFRLPVG (SEQ ID NO:7)-GG-D(KLAKLAK)2) (SEQ ID NO:11)] and untargeted [(WIFPWIQL (SEQ ID NO:6)-+(KLAKLAK)2 (SEQ ID NO:11) and WDLAWMFRLPVG (SEQ ID NO:7)-+(KLAKLAK)2 (SEQ ID NO:11)] peptides was used. Human prostate cancer-derived DU 145 cells were grown in tissue chamber slides (Lab-Tek II Chamber Slide System; Nalge Nunc International Corp., Naperville, Ill.). Cells were washed with PBS and incubated with 30 μM (in 300 μl DMEM supplemented with 10% FBS, penicillin and streptomycin) of the targeted and untargeted peptides for 6 hours. Pure DMEM was used as an internal negative control. Apoptosis was detected with the Annexin-V-FLUOS Staining kit (Roche, Manheim, Germany) according to the manufacturer's instructions.

LNCaP cells [1] = assay: Cell apoptosis assay (Annexin-V staining), LnCap; assay type: cell-based, human; details: LnCap (data not shown)
[2] = tested on: DU145-derived human prostate carcinoma xenografts; assay: Targeted treatment of nude mice bearing DU145 human prostate carcinoma xenografts; assay type: in vivo; details: 300 μg/week per mouse i.v.; controls vehicle and equimolar unconjugated mixtures; P<0.001
Description: Establishment of mice bearing human tumor xenografts. Male athymic nu/nu (nude) mice were obtained commercially from Harlan-Sprague-Dawley (Indianapolis, Ind.). Human prostate cancer xenografts were established by injection of DU 145 cells (10^6 cells in a 200 μl DMEM) in the subcutaneous tissue of 2 months old male nude mice.
Targeted treatment ofnude mice bearing human prostate carcinoma xenografts. DU145-derived tumor xenografts were established in male nude mice as described above. GRP78-targeting peptides used for therapy were coupled to the pro-apoptotic motif D(KLAKLAK)2 ([…]) and controls were treated with an equimolar concentration of the GRP78-targeting peptides and the pro-apoptotic motif. Mice were divided into groups of seven animals and treatment started when mean tumor volume for each group was around 200 mm^3. Two-dimensional measurements of tumors were made by caliper on anesthetized mice, and were used to calculate tumor volume. […]
Statistical analysis. Experiments are expressed as mean±standard errors of the means (SEM) of triplicate plates and analyzed by using the two-tailed Student's t test (t test). Tumor volumes were calculated individually for each mouse throughout the study and results are also expressed as mean±SEM for all the groups.

[3] = tested on: diet-induced obese C57BL/6 mice; assay: Fat resorption and metabolic analysis in diet-induced obese mice; details: 4 weeks of treatment
From the text: Apoptosis was detected by using standard TUNEL immunohistochemistry.
Fat resorption and metabolic analysis. High-calorie diet for obesity induction (TD97366: 25.4% fat, 21.79% protein, 38.41% carbohydrate) was purchased from Harlan Teklad. […] Stocks of [sequence] (SEQ ID NO:4)-GG-D(KLAKLAK)2 (SEQ ID NO:11), [sequence] (SEQ ID NO:10)-GG-D(KLAKLAK)2 (SEQ ID NO:11), D(KLAKLAK)2, CARAC (SEQ ID NO:9)-GG-D(KLAKLAK)2 (SEQ ID NO:11), and [sequence] (SEQ ID NO:4) chemically synthesized, cyclized, and HPLC-purified to 99% purity (AnaSpec) were prepared by dissolving lyophilized peptides in DMSO to a concentration of 65 mM. […] Mouse weight, body temperature, and food and water consumption were monitored weekly. Tissue lipids were measured as described. […] Oxygen consumption and heat generation of fasting mice were measured for 24 h by indirect calorimetry with OXYMAX (Columbus Instruments, Columbus, Ohio). To quantify spontaneous activity, 8 mice (2 mice per cage) were placed in automated photocell activity cages (AccuScan Instruments, Columbus, Ohio). […] Horizontal locomotor activity was computer-monitored as the number of infrared beam breaks, which were detected for the period of 1 h and recorded every hour for the duration of the test (14 h) by using a Versamax Analyser. […]

[4] = tested on: wild-type mice obese due to old age; assay: Treatment of age-related obesity in regular diet-fed wild-type mice; assay type: in vivo, mouse
Description: Fat resorption and metabolic analysis. […] Tissue lipids were measured as described.

recombinant GRP78 = biological target: T1, recombinant GRP78 (Mesocricetus auratus, UniProt P07823); assay: In vitro phage binding assay on immobilized GRP78; details: increasing concentrations of synthetic peptide against the corresponding phage
T1 construct: purchased Stressgen, Victoria, Canada
T1 sequence (P07823 19-654): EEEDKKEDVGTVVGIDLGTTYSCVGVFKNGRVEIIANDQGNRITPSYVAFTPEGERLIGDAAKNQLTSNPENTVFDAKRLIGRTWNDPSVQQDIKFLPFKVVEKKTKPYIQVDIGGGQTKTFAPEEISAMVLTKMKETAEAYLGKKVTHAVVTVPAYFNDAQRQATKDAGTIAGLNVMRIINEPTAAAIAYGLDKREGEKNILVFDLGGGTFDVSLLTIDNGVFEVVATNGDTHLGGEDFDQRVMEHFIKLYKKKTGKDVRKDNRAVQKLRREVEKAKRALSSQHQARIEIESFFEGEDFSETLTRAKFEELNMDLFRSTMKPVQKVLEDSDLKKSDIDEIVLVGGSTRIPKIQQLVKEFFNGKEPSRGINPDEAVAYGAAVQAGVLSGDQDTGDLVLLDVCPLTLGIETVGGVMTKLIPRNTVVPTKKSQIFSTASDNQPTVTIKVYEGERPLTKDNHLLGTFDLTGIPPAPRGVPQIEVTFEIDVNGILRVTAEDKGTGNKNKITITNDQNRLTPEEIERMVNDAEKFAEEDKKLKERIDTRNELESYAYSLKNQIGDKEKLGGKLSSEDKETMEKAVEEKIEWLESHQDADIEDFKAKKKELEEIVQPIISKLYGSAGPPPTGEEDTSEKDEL
Description: In vitro phage binding assays. GRP78, HSP70, HSP90 (all from Stressgen, Victoria, Canada) and bovine serum albumin (BSA) were immobilized on microtiter wells of 96-well plates overnight at 4° C. Wells were washed twice with phosphate-buffered saline (PBS), blocked with PBS containing 3% BSA for 1 hour at room temperature (RT), and incubated with 10^9 transducing units (TU) of WIFPWIQL (SEQ ID NO:6)-phage, WDLAWMFRLPVG (SEQ ID NO:7)-phage, or insertless control phage (Fd-tet) in 50 μl of PBS containing 1.5% BSA. After 2 hours at RT, wells were washed with PBS, and bound phage were recovered by infection with host bacteria (log-phase Escherichia coli K91 kan; OD600≈2). Aliquots of the bacterial culture were plated onto Luria-Bertani broth (LB) agar plates supplemented with 40 μg/ml tetracycline and 100 μg/ml kanamycin. Plates were incubated overnight at 37° C., and phage TU were counted in triplicate plates. Increasing concentrations of synthetic peptides WIFPWIQL (SEQ ID NO:6), WDLAWMFRLPVG (SEQ ID NO:7)-, and an unrelated control peptide CARAC (SEQ ID NO:9) (Genemed Synthesis Inc., San Francisco, Calif.) were used to evaluate competitive inhibition of phage binding. All peptides were solubilized in a standard stock solution of 10% dimethylsulfoxide (DMSO) and diluted to working concentrations for the assays.

MDA-PCa-2b cells = assay: Induction of apoptosis, WST-1 cell viability assay, MDA-PCa-2b; assay type: cell-based, human; details: 10-100 μM, 24-72 hours
Description: (§1) Induction and Quantification of Apoptosis with […] (SEQ ID NO:1)-GG-D(KLAKLAK)2 (SEQ ID NO:11) Synthetic Peptide. Soluble […] (SEQ ID NO:1)-GG-D(KLAKLAK)2 (SEQ ID NO:11), […] […] The unrelated control peptide […] (SEQ ID NO:5)-GG-D(KLAKLAK)2 (SEQ ID NO:11) was synthesized by Genemed Synthesis, Inc. (South San Francisco, Calif.). LNCaP, MDA-PCa-2b cells (each at 3×10^4 per well), and EF43fgf-4 cells (7) at 2×10^4 per well were seeded in triplicates and incubated in 96-well plates (Becton Dickinson, Franklin Lakes, N.J.) for 24-72 hours at 37° C., with serially increasing concentrations (10-100 μM) of […] (SEQ ID NO:1))-GG-D(KLAKLAK)2 (SEQ ID NO:11) peptide, […] (SEQ ID NO:1)-peptide alone, D(KLAKLAK)2 (SEQ ID NO:11) peptide alone, or an equimolar mixture of the unconjugated peptides […] […] LNCaP cells were also exposed in parallel to increasing concentrations (20-100 μM) of […] (SEQ ID NO:1)-GG-D(KLAKLAK)2 (SEQ ID NO:11) and unrelated control peptides […] (SEQ ID NO:4)-GG-D(KLAKLAK)2 (SEQ ID NO:11) or […] (SEQ ID NO:5)-GG-D(KLAKLAK)2 (SEQ ID NO:11), under the same conditions. […] (SEQ ID NO:1)-GG-D(LAKLAK)2 (SEQ ID NO:11) peptide for 3 hours. Response was evaluated by a cell viability assay (WST-1; Roche, Mannheim, Germany).

LNCaP cells [5] = assay: Induction of apoptosis, WST-1 cell viability assay, LNCaP; assay type: cell-based, human; details: 10-100 μM, 24-72 hours
Description: as §1

white fat vasculature = assay: In vivo homing of fitc-peptides in wild-type mice; parameters: species or system mouse

WDLAWMFRLPVG (SEQ ID NO:7)-GG-D(KLAKLAK)2 (SEQ ID NO:11): GRP78-targeted pro-apoptotic peptide (WDLAWMFRLPVGGG[dK][dL][dA][dK][dL][dA][dK][dK][dL][dA][dK][dL][dA][dK])
toxicity / apoptosis (Annexin-V staining) (DU145 cells): induced apoptosis
toxicity / apoptosis (Annexin-V staining) (LNCaP cells [1]): induced apoptosis
mean tumor volume relative to the controls [2]: significantly smaller

CC(C)C[C@@H](NC(=O)[C@@H](CCCCN)NC(=O)CNC(=O)CNC(=O)[C@@H]1CSSC[C@H](N)C(=O)N[C@@H](CCCCN)C(=O)NCC(=O)NCC(=O)N[C@@H](CCCNC(=N)N)C(=O)N[C@@H](C)C(=O)N[C@@H](CCCCN)C(=O)N[C@@H](CC(=O)O)C(=O)N1)C(=O)N[C@H](C)C(=O)N[C@H](CCCCN)C(=O)N[C@H](CC(C)C)C(=O)N[C@H](C)C(=O)N[C@H](CCCCN)C(=O)N[C@H](CCCCN)C(=O)N[C@H](CC(C)C)C(=O)N[C@H](C)C(=O)N[C@H](CCCCN)C(=O)N[C@H](CC(C)C)C(=O)N[C@H](C)C(=O)N[C@H](CCCCN)C(=O)O (H-CKGGRAKDCGG[dK][dL][dA][dK][dL][dA][dK][dK][dL][dA][dK][dL][dA][dK]-OH; disulfide 1-9)
apoptosis and appearance of control organs such as liver [3]: apoptosis was not detected in the control tissues
toxicity [4]: without detectable toxicity

WDLAWMFRLPVG (SEQ ID NO:7): synthetic GRP78-binding peptide
inhibition of phage binding to GRP78 by synthetic peptide (recombinant GRP78): inhibit binding of the corresponding phage in a dose-dependent manner

WIFPWIQL (SEQ ID NO:6): synthetic GRP78-binding peptide
inhibition of phage binding to GRP78 by synthetic peptide (recombinant GRP78): inhibit binding of the corresponding phage in a dose-dependent manner

D(KLAKLAK)2 (SEQ ID NO:11): amphipathic, α-helix-forming anti-microbial pro-apoptotic peptide KLAKLAKKLAKLAK (D-amino acids) [reference compound]
programmed cell death / toxic effect (WST-1 cell viability) (MDA-PCa-2b cells): no measurable toxic effects
programmed cell death / toxic effect (WST-1 cell viability) (LNCaP cells [5]): no measurable toxic effects

WIFPWIQL (SEQ ID NO:6)-GG-D(KLAKLAK)2 (SEQ ID NO:11): GRP78-targeted pro-apoptotic peptide (WIFPWIQLGG[dK][dL][dA][dK][dL][dA][dK][dK][dL][dA][dK][dL][dA][dK])
toxicity / apoptosis (Annexin-V staining) (DU145 cells): induced apoptosis
toxicity / apoptosis (Annexin-V staining) (LNCaP cells [1]): induced apoptosis
mean tumor volume relative to the controls [2]: significantly smaller

CGRRAGGSC (SEQ ID NO:1): soluble IL-11-mimic peptide alone, used as control
programmed cell death / toxic effect (WST-1 cell viability) (MDA-PCa-2b cells): no measurable toxic effects
programmed cell death / toxic effect (WST-1 cell viability) (LNCaP cells [5]): no measurable toxic effects

CKGGRAKDC (SEQ ID NO:4)-fitc: soluble CKGGRAKDC peptide linked to fluorescein (fitc) at its C-terminus (CKGGRAKDC-{FITC′}; also: cyclized, bridge type not given here)
presence in isolated ex-vivo blood vessels from white fat tissue (white fat vasculature; mouse, in vivo): presence
detection in white fat vasculature (white fat vasculature; wild-type C57BL/6 mice, i.v., 5 min prior to tissue collection): specifically localized to and was internalized by blood vessels of subcutaneous and peritoneal white fat
homing to blood vessels of brown fat, liver and other control organs (white fat vasculature; wild-type mice, i.v.): no CKGGRAKDC (SEQ ID NO:4)-fitc homing was observed
